Laboratory results as given in PMC8539310, “In Vitro Anti-HIV-1 Reverse Transcriptase and Integrase Properties of Punica granatum L. Leaves, Bark, and Peel Extracts and Their Main Compounds” (Plants, 2021).

Experiments:
[1] = molecular target: T1, HIV-1 RT-associated RNase H (Human immunodeficiency virus type 1 group M subtype B, UniProt P04585); test: RNase H polymerase independent cleavage assay; type: biochemical; details: for remaining activity at 100 µM: read-out: Percentage of control RNase H activity in the presence of the indicated drug concentration
T1 construct: HIV-1 group M subtype B heterodimeric RT; made in house
Protocol: HIV-1 group M subtype B heterodimeric RT was expressed and purified essentially as previously described.
HIV RT-associated RNase H activity was measured as described by Corona et al. 2016 [68] using the RNase H inhibitor RDS1759 as a control. Data analysis of the assay results was performed using GraphPad Prism 9.

[2] = molecular target: T2, HIV-1 IN in the presence of LEDGF/p75 (Human immunodeficiency virus type 1 group M subtype B, UniProt P04585); test: HTRF IN LEDGF-dependent assay; type: biochemical; details: for remaining activity at 100 µM: read-out: Percentage of control IN LEDGF-dependent activity in the presence of the indicated drug concentration; for Inhibition of HIV-1 IN LEDGF-dependent activity (in words): highest tested concentration; for IC50: pure compounds, in the presence of LEDGF, read-out: HIV-1 Integrase LEDGF-Dependent IC50
T2 construct: Recombinant IN and LEDGF/p75 proteins were expressed and purified; made in house
Protocol: Recombinant IN and LEDGF/p75 proteins were expressed and purified as described by Esposito et al. 2020 [67].
The IN activity was measured in the presence of LEDGF/p75 cellular cofactor in an HTRF assay. Data analysis of the assay results was performed using GraphPad Prism 9.

[3] = test system: HIV-1 RT, wild-type and mutant; design: method as in PMID 23821410; details: wild-type and mutant RTs; cited from earlier work
[4] = test system: X4-tropic HIV-1; design: method as in PMID 29480632; details: target cells; cited from earlier work
[5] = test system: HIV RT DNA polymerase activity; design: method as in Nutan et al. 2013 51; details: ref Nutan et al. 2013 51; cited from earlier work
[6] = test system: HIV-1 protease; details: cited from earlier work
[7] = test system: target cells; details: cited from earlier work
[8] = test system: HIV-1 infection in Jurkat cells; design: method as in PMID 22140483; details: cited from earlier work
[9] = test system: H9 lymphocytes; design: method as in PMID 1698933; details: cited from earlier work
[10] = test system: HIV-1 in H9 lymphocytes; design: method as in PMID 1698933; details: infected H9 lymphocytes; cited from earlier work

| Compound | IC50 ([1]; pure compounds) [µM] | remaining activity at 100 µM [2] [%] | Inhibition of HIV-1 IN LEDGF-dependent activity (in words) [2] | IC50 [2] [µM] | other results |
| --- | --- | --- | --- | --- | --- |
| O=c1cc(-c2ccc(O)cc2)oc2cc(O[C@@H]3O[C@H](CO)[C@@H](O)[C@H](O)[C@H]3O)cc(O)c12 [Apigenin 7-O-glucoside] | > 100 | 100 | totally inactive | > 100 | remaining activity at 100 µM [1]: 100% |
| O=c1cc(-c2ccc(O)cc2)oc2cc(O)cc(O)c12 [Apigenin] | 16.1 ± 0.6 | – | – | 22 ± 3.5 | – |
| C=C(C)[C@@H]1CC[C@]2(C(=O)O)CC[C@]3(C)[C@H](CC[C@@H]4[C@@]5(C)CC[C@H](O)C(C)(C)[C@@H]5CC[C@]43C)[C@@H]12 [Betulinic acid] | 2 ± 0.2 | – | weakly active | 96.5 ± 3.5 | Inhibition of HIV-1 RT-associated functions [3]: inhibited |
| O=c1oc2c(O)c(O)cc3c(=O)oc4c(O)c(O)cc1c4c23 [Ellagic acid] | 1.4 ± 0.11 | – | – | 0.075 ± 0.0005 | Suppression of replication of X4-tropic HIV-1 [4]: able to suppress; Inhibition of HIV RT (DNA polymerase activity) [5]: inability; Inhibition of HIV-1 protease expression [6]: ability to inhibit; Cytotoxicity [7]: without cytotoxicity |
| O=c1cc(-c2ccc(O[C@@H]3O[C@H](CO)[C@@H](O)[C@H](O)[C@H]3O)c(O)c2)oc2cc(O)cc(O)c12 [Luteolin 4′-O-glucoside] | > 100 | 100 | totally inactive | > 100 | remaining activity at 100 µM [1]: 100% |
| O=c1cc(-c2ccc(O)c(O)c2)oc2cc(O)cc(O)c12 [Luteolin] | 3.7 ± 0.5 | – | – | 6.5 ± 0.5 | Inhibition of HIV-1 infection [8]: capable of inhibiting |
| CC1(C)CC[C@]2(C(=O)O)CC[C@]3(C)C(=CC[C@@H]4[C@@]5(C)CC[C@H](O)C(C)(C)[C@@H]5CC[C@]43C)[C@@H]2C1 [Oleanolic acid] | 6.7 ± 0.4 | 74 | inactive | > 100 | Inhibition of protease expression [6]: inhibit |
| O=C1OC2C(O)OC3COC(=O)c4cc(O)c(O)c(O)c4-c4c(O)c(O)c5oc(=O)c6c(c(O)c(O)c7oc(=O)c4c5c76)-c4c(cc(O)c(O)c4O)C(=O)OC3C2OC(=O)c2cc(O)c(O)c(O)c2-c2c1cc(O)c(O)c2O (stereo not drawn) [Punicalagins, Punicalagin α + β] | – | – | – | 0.065 | HIV-1 RT-Associated RNase H IC50 ([1]; pure compounds): 0.12 ± 0.00 µM; Cytotoxicity [9]: low degree of cytotoxicity; Inhibition of HIV-1 replication [10]: inhibited |
| CCOC(=O)C(=O)CC(=O)/C=C/c1cccn1Cc1ccccc1Cl [RDS1759, reference compound] | – | – | – | – | HIV-1 RT-Associated RNase H IC50 ([1]; reference compound of Table 1, footnote c: expressed in µM): 10.7 ± 0.9^c µM |
| C[C@H]1[C@H](C)CC[C@]2(C(=O)O)CC[C@]3(C)C(=CC[C@@H]4[C@@]5(C)CC[C@H](O)C(C)(C)[C@@H]5CC[C@]43C)[C@H]12 [Ursolic acid] | 5.7 ± 0.1 | 68 | inactive | > 100 | Inhibition of protease expression [6]: inhibit |
